Earlier results in patent publication US20030143291A1, “Herbal compositions and methods for diabetes and weight loss management” (priority 2002, published 2003).

Experiments:
[1] = system: Methicillin-resistant s. aureus

CC(C)C1=C2CCC(COC(=O)c3ccc(O)cc3)=CCC2(C)CC1 (centres unmarked) [Compound 6, 14-(4′-hydroxybenzoyloxy)dauc-4,8-diene]
antimicrobial activity against Staphylococcus aures (Staphylococcus aures): antimicrobial activity
antimicrobial activity against Methicillin-resistant s. aureus [1]: antimicrobial activity
